# Measurements: PMC12881674, “Activation of TRPV3 channels in bladder cancer cells stimulates ATP release” (Molecular Pharmacology, 2025)
# How the values were obtained:
# [1] = molecular target: T1, rat TRPV1 (Rattus norvegicus, UniProt O35433); assay: fluo-4 Ca2+ assay selectivity, HEK cells expressing rat TRPV1; format: cell-based; settings: concentrations up to 50 μM
# T1 construct: expressed in transfected cells; host or cells: HEK293
# Text: (§1) KU-19-19 (DSMZ no. ACC 395), CAL-29 (DSMZ no. ACC 515), 647-V (DSMZ no. ACC 414), RT-4 (DSMZ no. ACC 412), and RT-112 (DSMZ no. ACC 418) bladder cancer cell lines were obtained from the Leibniz Institute DSMZ (German Collection of Microorganisms and Cell Cultures). Human TRPV3 (NM_145068, purchased from OriGene) and mouse TRPV3 (NM_001371006), rat TRPV1, mouse TRPV2, mouse TRPV4, human TRPM2, human TRPM8, and human TRPA1 were stably transfected in HEK293 cells as described before.[27] […]
# (§2) All fluorometric Ca^2+ assays were performed in HBS buffer at room temperature. […] For the primary compound screening and the generation of concentration-response analyses, a robotic liquid handling station (Freedom Evo 150; Tecan) with a built-in custom-made fluorescence plate imager was used. […] Fluorescence was excited using a 470-nm light-emitting diode, and emitted light was imaged through a 515-nm–long pass filter with a cooled Zyla 5.5 camera (Andor). Fluorescence was recorded and processed under the control of the μ-Manager 2.0 gamma software (https://micro-manager.org.[28]). After recording baseline fluorescence, compounds were dispensed into the wells via the liquid handling device. […] For further analysis, fluorescence signals were calculated for each well, corrected for background intensities and normalized to the initial signals. […]
# [2] = molecular target: T2, mouse TRPV4 (Mus musculus, UniProt Q9EPK8); assay: fluo-4 Ca2+ assay selectivity, HEK cells expressing mouse TRPV4; format: cell-based; settings: concentrations up to 50 μM
# T2 construct: expressed in transfected cells; host or cells: HEK293
# Text: as §1, §2
# T1 sequence (O35433 whole entry): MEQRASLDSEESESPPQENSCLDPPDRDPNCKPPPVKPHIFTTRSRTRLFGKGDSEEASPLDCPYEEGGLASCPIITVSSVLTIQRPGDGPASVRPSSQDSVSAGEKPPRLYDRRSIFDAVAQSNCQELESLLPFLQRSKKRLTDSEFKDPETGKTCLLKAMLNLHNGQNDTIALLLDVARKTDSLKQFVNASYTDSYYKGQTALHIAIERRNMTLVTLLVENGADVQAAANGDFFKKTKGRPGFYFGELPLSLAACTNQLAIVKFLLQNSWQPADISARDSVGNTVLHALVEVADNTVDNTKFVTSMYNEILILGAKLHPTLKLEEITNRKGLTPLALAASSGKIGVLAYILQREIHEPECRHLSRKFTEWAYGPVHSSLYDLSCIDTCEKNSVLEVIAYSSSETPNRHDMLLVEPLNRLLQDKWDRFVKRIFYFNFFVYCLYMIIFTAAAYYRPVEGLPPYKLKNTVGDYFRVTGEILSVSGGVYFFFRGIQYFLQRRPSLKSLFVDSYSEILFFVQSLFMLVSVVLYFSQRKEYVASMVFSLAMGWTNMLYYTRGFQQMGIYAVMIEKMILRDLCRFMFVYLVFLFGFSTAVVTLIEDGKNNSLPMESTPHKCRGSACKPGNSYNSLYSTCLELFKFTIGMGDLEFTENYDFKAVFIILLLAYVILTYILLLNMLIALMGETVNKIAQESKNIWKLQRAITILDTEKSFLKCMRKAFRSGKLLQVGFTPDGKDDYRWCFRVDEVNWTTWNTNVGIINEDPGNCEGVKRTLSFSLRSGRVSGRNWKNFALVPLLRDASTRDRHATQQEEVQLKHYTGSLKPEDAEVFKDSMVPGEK
# T2 sequence (Q9EPK8 whole entry): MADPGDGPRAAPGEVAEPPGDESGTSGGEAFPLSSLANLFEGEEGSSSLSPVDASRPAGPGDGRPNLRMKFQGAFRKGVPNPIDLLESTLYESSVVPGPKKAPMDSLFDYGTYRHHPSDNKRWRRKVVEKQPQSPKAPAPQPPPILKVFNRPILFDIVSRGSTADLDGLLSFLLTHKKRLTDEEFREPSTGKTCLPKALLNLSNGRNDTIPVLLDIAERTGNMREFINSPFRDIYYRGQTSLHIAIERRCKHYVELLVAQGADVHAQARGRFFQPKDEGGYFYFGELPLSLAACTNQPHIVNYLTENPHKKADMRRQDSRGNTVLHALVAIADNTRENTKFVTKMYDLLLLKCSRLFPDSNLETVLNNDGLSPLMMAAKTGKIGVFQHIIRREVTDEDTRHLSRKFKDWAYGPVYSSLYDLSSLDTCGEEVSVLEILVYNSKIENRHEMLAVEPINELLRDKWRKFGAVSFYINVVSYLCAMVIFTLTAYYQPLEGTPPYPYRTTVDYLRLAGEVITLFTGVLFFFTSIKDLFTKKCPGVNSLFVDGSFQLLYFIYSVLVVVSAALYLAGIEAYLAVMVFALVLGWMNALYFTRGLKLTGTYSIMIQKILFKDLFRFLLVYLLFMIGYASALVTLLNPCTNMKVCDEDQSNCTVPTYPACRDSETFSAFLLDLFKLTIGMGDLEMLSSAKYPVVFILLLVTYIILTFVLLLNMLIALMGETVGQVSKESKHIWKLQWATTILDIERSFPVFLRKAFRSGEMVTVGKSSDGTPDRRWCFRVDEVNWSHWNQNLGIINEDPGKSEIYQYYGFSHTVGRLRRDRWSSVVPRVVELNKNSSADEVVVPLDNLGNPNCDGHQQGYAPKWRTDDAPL
structure (smiles),measurement,setting,value
COC(=O)C12CN(Cc3ccccc3)CC1(C(=O)OC)CN(Cc1ccccc1)C2 (centres unmarked) [AV3-1],effect on TRPV1,[1],only a minor activation
same,effect on TRPV4,[2],no effect
